Experiments:
thrombin = assay: X-ray crystallography of freely mounted crystal after dripping on picoliter drops (FIG. 4); format: binding; conditions: active center of thrombin around Ser195; 2F0-F0 density outlined at 1σ
Text: FIG. 4: The covalently bound inhibitor as well as individual amino acids in the environment of the active center of the thrombin around Ser195 are depicted in the form of a stick model. Oxygen atoms are depicted in red, sulfur atoms in yellow, nitrogen atoms in blue, and carbon atoms in gray. Additionally, the inhibitor is overlaid by its 2F0-F0 electron density (outlined at 1σ). The inhibitor is clearly defined concerning its electron density.
Thereby, evidence has been offered that the approach of dripping picoliter drops onto a protein crystal by use of the free mounting system works.

[1] = test system: DPIV (dipeptidyl peptidase IV); assay: X-ray crystallography of DPIV crystal treated with inhibitor (FIG. 5); format: binding; conditions: active center of DPIV around Ser630; 2F0-F0 density outlined at 1σ
Text: Oxygen atoms are depicted in red, nitrogen atoms in blue, and carbon atoms in gray. Additionally, the inhibitor as well as Ser630, which is covalently coupled to the inhibitor, is overlaid by its 2F0-F0 electron density (outlined at 1σ). The inhibitor is clearly defined concerning its electron density (FIG. 5).
From the used tripeptide having the sequence Ile-Pro-Ile, the C-terminal isoleucine is cleaved off while the dipeptide remains covalently linked with Ser630 and is not cleaved off.
The target enzyme was DPIV (dipeptidyl peptidase IV). Different fragments were solved in a cocktail together. In a cocktail (i), molecules of two different molecule species were combined, i.e. a mimetic (altered peptide backbone (vinyl derivative) of the N-terminal dipeptide of a substrate of the DPIV (having a free N-terminus) and, on the other hand, a mimetic (also a dipeptide with acetylated, blocked N-terminus, also. as. framework mimetic—vinyl derivative). In a second cocktail (ii), five different molecule species (which differed concerning both side chains of the two dipeptide mimetics) from each of the two mimetic classes, i.e. 10 molecule species altogether, were combined in a cocktail.

Molecule: O=S(=O)(F)Cc1ccccc1 [PMSF, phenylmethylsulfonyl fluoride]
- binding seen in experimentally determined electron density (thrombin): covalent bond of the PMSF at Ser195

Molecule: diprotin A
- binding mode seen in electron density [1]: rather acts as a suicide substrate than as an inhibitor

From patent publication US20070110901A1, “Method for identifying weakly binding molecule fragments having ligand properties, whereby the molecule fragments are applied in the form of microdrops of a corresponding solution to the crystal” (Proteros Biostructures GMBH, priority 2003, published 2007)
